Assay results published in US12194080B2, “Methods for identification, assessment, prevention, and treatment of metabolic disorders using PM20D1 and N-lipidated amino acids” (Dana-Farber Cancer Institute, Inc., priority 2015, dated 2025).
“Also recorded” adds a separate entry of the source.

Molecular target: T1, mouse PM20D1 (Mus musculus, UniProt Q8C165)
T1 construct: Full-length mouse Pm20d1 cDNA (GE Dharmacon) was subcloned with an in-frame C-terminal 6× His and FLAG® tag; made in house; host or cells: 293A (HEK293A) cells stably infected with retrovirus
T1 sequence (Q8C165 25-503): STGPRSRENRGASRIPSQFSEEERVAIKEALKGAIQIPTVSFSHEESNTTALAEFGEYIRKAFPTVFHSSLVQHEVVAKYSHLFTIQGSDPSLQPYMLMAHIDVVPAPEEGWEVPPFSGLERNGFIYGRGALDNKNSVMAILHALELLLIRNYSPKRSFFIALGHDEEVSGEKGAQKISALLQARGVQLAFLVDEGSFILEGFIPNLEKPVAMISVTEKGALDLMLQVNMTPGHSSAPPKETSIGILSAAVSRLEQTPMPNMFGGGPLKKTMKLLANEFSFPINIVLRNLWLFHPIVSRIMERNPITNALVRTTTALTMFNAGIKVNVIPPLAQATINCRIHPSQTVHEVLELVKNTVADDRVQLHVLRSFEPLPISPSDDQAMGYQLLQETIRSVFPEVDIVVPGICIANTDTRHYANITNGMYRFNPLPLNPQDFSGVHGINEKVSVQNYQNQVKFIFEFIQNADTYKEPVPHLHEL
Test: In vitro PM20D1-catalyzed N-acyl amino acid hydrolysis
Type: biochemical
Settings: N-acyl amide substrate 100 μM
Method: The concentrated media was centrifuged to remove debris (600×g, 10 min, 4° C.) and the supernatant containing PM20D1-flag was decanted into a new tube. PM20D1-Flag was immunoaffinity purified overnight at 4° C. from the concentrated media using magnetic Flag-M2 beads (Sigma Aldrich). The beads were collected, washed three times in PBS, eluted with 3× Flag peptide ([…] in PBS, Sigma Aldrich), aliquoted, and stored at −80° C. For the purification of human PM20D1-flag, hPM20D1-flag plasmid (Origene) was transiently transfected into 293A cells. After two days, the media was changed, harvested 24 h later, concentrated, and purified exactly as described above.
In vitro PM20D1-catalyzed synthesis of N-acyl amino acids was measured by incubating purified PM20D1 protein with oleate (1.5 mM) and phenylalanine (0.1 mM) in PBS (to 100 μl final volume) at 37° C. for 1.5 hrs. In vitro PM20D1-catalyzed N-acyl amino acid hydrolysis was measured by incubating purified PM20D1 protein with the indicated N-acyl amino acid (0.1 mM) in PBS (to 100 μl final volume) at 37° C. for 1.5 hrs. Reactions were terminated by placing the vials at −80° C. and the products generated in vitro were analyzed by mass spectroscopy (MS).
Briefly, frozen serum (30 μl) for polar metabolomic analyses were extracted in 160 μl of 1:1 acetonitrile/methanol with inclusion of internal standard D3, ^15N-serine (1 nmol). Activity assays (100 μl) were extracted in 400 μl 1:1 acetonitrile/methanol. Following 30 s of thorough vortexing and 1 min of bath sonication, the polar metabolite fraction (supernatant) was isolated by centrifugation at 13,000×g for 10 min. Ten μl of this supernatant was analyzed by SRM-based targeted LC-MS/MS, or untargeted LC-MS.
For separation of polar metabolites, normal-phase chromatography was performed with a […] column (50 mm×4.60 mm, Phenomenex). Mobile phases were as follows: Buffer A, acetonitrile; Buffer B, 95:5 water/acetonitrile with 0.1% formic acid or 0.2% ammonium hydroxide with 50 mM ammonium acetate for positive and negative ionization mode, respectively. The flow rate for each run started at 0.2 ml/min for 2 min, followed by a gradient starting at 0% B and increasing linearly to 100% B over the course of 15 min with a flow rate of 0.7 ml/min, followed by an isocratic gradient of 100% B for 10 min at 0.7 ml/min before equilibrating for 5 min at 0% B with a flow rate of 0.7 ml/min. MS analysis was performed with an electrospray ionization (ESI) source on an Agilent 6430 QQQ LC—MS/MS. The capillary voltage was set to 3.5 kV, and the fragmentor voltage was set to 100 V. The drying gas temperature was 325° C., the drying gas flow rate was 10 l/min, and the nebulizer pressure was 45 psi. For polar targeted and untargeted metabolomic analysis, representative metabolites were quantified by SRM of the transition from precursor to product ions (corresponding to amino acid fragment) at associated collision energies. Several representative fragmentation ions are as follows: C18:1-Ala, 352>88; C18:1-Gly, 338>74; C18:1-Phe, 428>164; C18:1-Leu/Ile, 394>130; C20:4-Phe, 450>164; C20:4-Leu/Ile, 416>130. Untargeted LC-MS was performed by scanning a mass range of m/z 50-1200, and data were exported as mzdata files and uploaded to XCMSOnline (xcmsserver.nutr.berkeley.edu) to identify metabolites that were differentially changed. For targeted metabolomics analysis, metabolites were quantified by integrating the area under the peak and were normalized to internal standard values corresponding to 1 nmol D3, ^15N-serine.

SMILES: CCCCCCCC/C=C\CCCCCCCC(=O)N[C@@H](Cc1ccccc1)C(=O)O [C18:1-Phe, Oleoyl-L-phenylalanine]
- substrate of the PM20D1 hydrolysis reaction: substrates; also recorded: liberated free oleate
